From ChEMBL document CHEMBL5230110, “FabI (enoyl acyl carrier protein reductase) - A potential broad spectrum therapeutic target and its inhibitors” (Eur J Med Chem, 2020)
Values after ≈ are worked out from the molar mass of the structure shown.

Tested on: Mycobacterium tuberculosis
Assay: Antimycobacterial activity against Mycobacterium tuberculosis InhA S94A assessed as reduction in bacterial growth
Type: functional

Question: Which MIC does the source give for `Oc1cc2ccc1Oc1ccc(cc1)CCc1ccc(c(O)c1)Oc1ccc(cc1)CC2` here?
Answer: 40 µg/mL (≈ 94.2 µM)

Question: How did the MIC turn out when `CC/C(C)=C1\OC(=O)[C@H](C)[C@H](O)[C@H](Cc2cccnc2)NC(=O)[C@@H](NC(=O)c2ncccc2O)[C@@H](C)OC1=O` [PYRIDOMYCIN] was run?
Answer: 0.3 µg/mL (≈ 0.555 µM)
